Data on twelve molecules can be found in patent US20070208166A1, “Tao Kinase Modulators And Method Of Use” (Exelixis, Inc., priority 2003, published 2007).

In general, IC50 refers to the concentration that inhibits the measured activity by half.

Holding throughout (type): biochemical
For one assay, the target named is T1, JIK (Homo sapiens, UniProt Q9H2K8).
T1 construct: 6 nM JIK (baculovirus expressed human KIAA 1361 kinase domain2-318); made in house
T1 sequence (Q9H2K8 2-318): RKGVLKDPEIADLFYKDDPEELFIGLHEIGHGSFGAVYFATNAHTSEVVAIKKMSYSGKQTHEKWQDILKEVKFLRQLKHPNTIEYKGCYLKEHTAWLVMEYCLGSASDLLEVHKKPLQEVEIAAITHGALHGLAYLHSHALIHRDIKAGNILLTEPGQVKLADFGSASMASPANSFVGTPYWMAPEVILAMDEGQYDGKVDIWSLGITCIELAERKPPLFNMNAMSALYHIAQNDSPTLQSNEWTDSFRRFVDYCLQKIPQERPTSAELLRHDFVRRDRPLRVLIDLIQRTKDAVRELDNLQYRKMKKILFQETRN
Kind of assay: JIK Luciferase-Coupled Chemiluminescent Kinase assay (LCCA). As to conditions: 2 μM ATP, 10 μM MBP, 6 nM JIK, 2 hours; read-out: JIK inhibition IC50. As to the method: (§1) Kinase activity and compound inhibition are investigated using one or more of the three assay formats described below. The ATP concentrations for each assay are selected to be close to the Michaelis-Menten constant (KM) for each individual kinase. Dose-response experiments are performed at 10 different inhibitor concentrations in a 384-well plate format. The data are fitted to four-parameter equation (2) below; where Y is the observed signal, X is the inhibitor concentration, Min is the background signal in the absence of enzyme (0% enzyme activity), Max is the signal in the absence of inhibitor (100% enzyme activity), IC50 is the inhibitor concentration at 50% enzyme inhibition and H represents the empirical Hill's slope to measure the cooperativity. Typically H is close to unity. Y=Min+(Max−Min)/(1+(X/IC50)ˆH) Equation (2) KIAA 1361 Assay: […]
(§2) JIK biochemical activity was assessed using a Luciferase-Coupled Chemiluminescent Kinase assay (LCCA) format. Kinase activity was measured as the percent ATP remaining following the kinase reaction. Remaining ATP was detected by luciferase-luciferin-coupled chemiluminescence. Specifically, the reaction was initiated by mixing test compounds, 2 μM ATP, 10 μM MBP and 6 nM JIK (baculovirus expressed human KIAA 1361 kinase domain2-318) in a 20 uL assay buffer (20 mM Tris-HCL pH7.5, 10 mM MgCl2, 0.02% Triton X-100, 100 mM DTT, 2 mM MnCl2). The mixture is incubated at ambient temperature for 2 hours after which 20 uL luciferase-luciferin mix is added and the chemiluminescent signal read using a Wallac Victor^2 reader. The luciferase-luciferin mix consists of 50 mM HEPES, pH 7.8, 8.5 ug/mL oxalic acid (pH 7.8), 5 (or 50) mM DTT, 0.4% Triton X-100, 0.25 mg/mL coenzyme A, 63 uM AMP, 28 ug/mL luciferin and 40,000 units of light/mL luciferase.

Another assay deals with T2, TAO (Homo sapiens, UniProt Q9UL54).
T2 sequence (Q9UL54 1-1235): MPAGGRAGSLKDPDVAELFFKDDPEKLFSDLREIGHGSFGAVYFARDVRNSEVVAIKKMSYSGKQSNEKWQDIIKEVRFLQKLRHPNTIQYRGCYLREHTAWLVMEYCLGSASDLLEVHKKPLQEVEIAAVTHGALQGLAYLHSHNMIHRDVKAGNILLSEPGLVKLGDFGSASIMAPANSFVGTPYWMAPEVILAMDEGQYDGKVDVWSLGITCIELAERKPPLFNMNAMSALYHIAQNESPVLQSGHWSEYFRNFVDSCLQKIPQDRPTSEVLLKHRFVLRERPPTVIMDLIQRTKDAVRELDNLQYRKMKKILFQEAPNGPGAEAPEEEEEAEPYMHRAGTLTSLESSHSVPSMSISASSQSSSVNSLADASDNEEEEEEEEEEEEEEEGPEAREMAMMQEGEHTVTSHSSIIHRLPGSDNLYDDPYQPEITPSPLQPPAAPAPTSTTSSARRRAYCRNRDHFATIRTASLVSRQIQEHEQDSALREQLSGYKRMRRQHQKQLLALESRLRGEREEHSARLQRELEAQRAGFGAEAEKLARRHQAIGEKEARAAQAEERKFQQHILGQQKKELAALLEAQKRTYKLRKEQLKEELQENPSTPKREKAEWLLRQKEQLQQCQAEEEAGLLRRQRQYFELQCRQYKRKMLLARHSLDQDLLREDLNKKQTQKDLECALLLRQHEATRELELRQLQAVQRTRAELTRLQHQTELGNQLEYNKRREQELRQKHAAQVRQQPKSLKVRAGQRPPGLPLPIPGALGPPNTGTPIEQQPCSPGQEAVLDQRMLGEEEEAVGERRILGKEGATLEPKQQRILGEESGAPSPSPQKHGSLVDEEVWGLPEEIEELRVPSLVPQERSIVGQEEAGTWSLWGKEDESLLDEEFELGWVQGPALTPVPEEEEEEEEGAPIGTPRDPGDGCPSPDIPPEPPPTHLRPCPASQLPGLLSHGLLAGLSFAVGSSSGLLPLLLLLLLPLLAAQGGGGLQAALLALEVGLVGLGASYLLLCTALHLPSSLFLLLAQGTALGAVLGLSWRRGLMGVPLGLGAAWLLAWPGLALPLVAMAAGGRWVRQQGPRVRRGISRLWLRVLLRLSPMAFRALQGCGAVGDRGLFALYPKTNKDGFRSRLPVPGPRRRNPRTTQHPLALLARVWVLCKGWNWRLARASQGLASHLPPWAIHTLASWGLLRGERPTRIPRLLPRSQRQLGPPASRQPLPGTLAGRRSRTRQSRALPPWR
Kind of assay: TAO Luciferase-Coupled Chemiluminescent Kinase assay (LCCA). The following applies: 2 μM ATP, 10 μM MBP, 12 nM TAO, 2 hours; read-out: TAO inhibition IC50. As to the method:
as §1
as §2, with “TAO biochemical” for “JIK biochemical”, “and 12” for “and 6”, “nM TAO” for “nM JIK”, “kinase domain 2-322)” for “kinase domain2-318)”, “mM […],” for “mM HEPES,”, “[…]” for “0.25 mg/mL”

Assay [1] has as its target T3, KIAA 1361 (baculovirus expressed human KIAA 1361 kinase domain 2-322) (Homo sapiens, UniProt Q7L7X3).
T3 construct: human KIAA 1361 kinase domain 2-322; made in house
T3 sequence (Q7L7X3 2-322): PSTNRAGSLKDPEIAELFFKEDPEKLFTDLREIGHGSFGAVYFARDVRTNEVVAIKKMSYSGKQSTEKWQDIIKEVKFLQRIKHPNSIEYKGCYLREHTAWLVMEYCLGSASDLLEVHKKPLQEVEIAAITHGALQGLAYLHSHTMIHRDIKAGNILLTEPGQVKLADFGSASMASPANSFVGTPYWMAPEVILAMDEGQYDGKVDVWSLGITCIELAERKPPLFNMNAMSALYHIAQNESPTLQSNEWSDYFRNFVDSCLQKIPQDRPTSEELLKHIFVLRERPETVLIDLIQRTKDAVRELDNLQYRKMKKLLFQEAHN
As to the kind of experiment: KIAA 1361 Luciferase-Coupled Chemiluminescent Kinase assay (LCCA). The following applies: 2 μM ATP, 10 μM MBP, 12 nM KIAA 1361, 2 hours; read-out: KIAA1361 inhibition IC50. As to the method: as §1
as §2, with “KIAA 1361 biochemical” for “JIK biochemical”, “and 12” for “and 6”, “nM KIAA 1361” for “nM JIK”, “kinase domain 2-322)” for “kinase domain2-318)”

As for `CC(C)c1ccc(NC(=O)N2CCC[C@H]2C(=O)NCc2ccc(Cl)c(Cl)c2)cc1` [Entry 24, (2S)-N˜2˜-[(3,4-dichlorophenyl)methyl]-N˜1˜-[4-(1-methylethyl)phenyl]pyrrolidine-1,2-dicarboxamide], the IC50 at JIK is 50 to 500 nM; on TAO it was 500 to 5000 nM; in assay [1] it was 50 to 500 nM.

On to `O=C(CNC(=O)COc1ccc(Br)cc1)NCc1ccc(Cl)c(Cl)c1` [Entry 25, N˜2˜-{[(4-bromophenyl)oxy]acetyl}-N-[(3,4-dichlorophenyl)methyl]glycinamide], for which the values for the concentration for half-maximal inhibition (IC50) (at JIK; on TAO; in assay [1]) were 50 to 500 nM, 500 to 5000 nM and 50 to 500 nM, respectively.

With `O=C(NC(C(=O)NC1CCCc2ccccc21)c1cccnc1)c1ccc(/N=N/c2ccccc2)cc1` (stereo not drawn) [Entry 26, N-[2-oxo-1-pyridin-3-yl-2-(1,2,3,4-tetrahydronaphthalen-1-ylamino)ethyl]-4-[(E)-phenyldiazenyl]benzamide], the IC50 at JIK is 50 to 500 nM; on TAO, 500 to 5000 nM; in assay [1] it was 500 to 5000 nM.

As to `CCCCOc1ccc(C(=O)NCC(=O)NC2CCCc3ccccc32)cc1` (stereo not drawn) [Entry 27, 4-(butyloxy)-N-[2-oxo-2-(1,2,3,4-tetrahydronaphthalen-1-ylamino)ethyl]benzamide], the IC50 at JIK lay in the range of 50 to 500 nM; at TAO, 500 to 5000 nM; in assay [1] it was 500 to 5000 nM.

With `COc1cccc(OCC(=O)NCC(=O)NC2CCCc3ccccc32)c1` (stereo not drawn) [Entry 28, N˜2˜-({[3-(methyloxy)phenyl]oxy}acetyl)-N-(1,2,3,4-tetrahydronaphthalen-1-yl)glycinamide], the IC50 on JIK is 50 to 500 nM; on TAO, 500 to 5000 nM; in assay [1], 500 to 5000 nM.

Take `CCCCc1ccc(C(=O)NCC(=O)NC2CCCc3ccccc32)cc1` (stereo not drawn) [Entry 29, 4-butyl-N-[2-oxo-2-(1,2,3,4-tetrahydronaphthalen-1-ylamino)ethyl]benzamide]: the IC50 was 500 to 5000 nM at JIK, above 5000 nM on TAO and 500 to 5000 nM in assay [1].

Take `COc1ccc(/C=C/C(=O)N[C@@H](COCc2ccccc2)C(=O)NC(c2ccccc2)c2ccccc2)cc1OC` [Entry 30, N˜2˜-{(2E)-3-[3,4-bis(methyloxy)phenyl]prop-2-enoyl}-N-(diphenylmethyl)-O-(phenylmethyl)serinamide]: the IC50 is 50 to 500 nM at JIK, above 5000 nM on TAO and 500 to 5000 nM in assay [1].

With `O=C(COc1ccc(OC(F)(F)F)cc1)NCC(=O)NC1CCCc2ccccc21` (stereo not drawn) [Entry 31, N-(1,2,3,4-tetrahydronaphthalen-1-yl)-N˜2˜-[({4-[(trifluoromethyl)oxy]phenyl}oxy)acetyl]glycinamide], the IC50 (at JIK; at TAO; in assay [1]) was 500 to 5000 nM each time.

As for `CC(C)CC(NC(=O)c1ccc(-c2ccccc2)cc1)C(=O)NC1CCCc2ccccc21` (stereo not drawn) [Entry 32, N-{3-methyl-1-[(1,2,3,4-tetrahydronaphthalen-1-ylamino)carbonyl]butyl}biphenyl-4-carboxamide], the results for the IC50 (at JIK; at TAO; in assay [1]) were 500 to 5000 nM, above 5000 nM and 500 to 5000 nM, respectively.

In the case of `O=C(COc1ccc(Cl)cc1)NCC(=O)NC1CCCc2ccccc21` (stereo not drawn) [Entry 34, N˜2˜-{[(4-chlorophenyl)oxy]acetyl}-N-(1,2,3,4-tetrahydronaphthalen-1-yl)glycinamide], the values for the concentration for half-maximal inhibition (IC50) (on JIK; at TAO; in assay [1]) were 500 to 5000 nM, above 5000 nM and above 5000 nM, respectively.

Take `CCCCCOc1ccc(C(=O)NC(CC(C)C)C(=O)NC2CCCc3ccccc32)cc1` (stereo not drawn) [Entry 35, N˜2˜-{[4-(pentyloxy)phenyl]carbonyl}-N(1,2,3,4-tetrahydronaphthalen-1-yl)leucinamide]: the IC50 on JIK was 50 to 500 nM; on TAO, 500 to 5000 nM; in assay [1] it was above 5000 nM.

With `CCCCCCOc1ccc(C(=O)NC(C)C(=O)NC2CCc3ccccc3C2)cc1` (stereo not drawn) [Entry 36, 4-(hexyloxy)-N-[1-methyl-2-oxo-2-(1,2,3,4-tetrahydronaphthalen-2-ylamino)ethyl]benzamide], the IC50 is 50 to 500 nM on JIK, above 5000 nM at TAO and above 5000 nM in assay [1].
